Results reported in US20230357248A1, “PYRROLOPYRIMIDINE COMPOUND AS BTK INHIBITOR AND USE THEREOF” (MEDSHINE DISCOVERY INC., priority 2019, published 2023).

Assays:
TMD8 cells = assay: BTK cell activity assay (CellTiter Glo); format: cell-based; conditions: Homo sapiens, Cell Titer Glo, read-out: Relative IC50
Procedure: 1. Cell Culture and Passage
The medium, trypsin and 1×PBS used in the cell passage process were preheated in a 37° C. water bath. The supernatant was aspirated.
1 mL of trypsin was added to rinse, and the rinse solution was aspirated. 1 mL of trypsin was added, respectively, and cells were digested at 37° C. until the cells fell off. 10 mL of culture medium was added and mixed well. The mixture was centrifuged at 1000 rpm for 5 min and the cells were resuspended in 10 mL of culture medium. 0.7 mL of cell suspension was pipetted into a counting cup and counted on ViCell XR to respectively obtain a cell density of 0.327 million/mL. 1.17 mL of cell suspension and culture medium were weighed, respectively, to dilute the cell suspension. According to the microplate layout diagram below, 100 μL of phosphate buffer was added to the peripheral wells of the 384-well microplate, and 40 μL of cell suspension was added to other wells, respectively. The cell plate was then cultured in an incubator.
2. Dosing • (1) Preparation of compound:
A 9 μL dilution of the compound to be assayed was added to a shallow-well plate for Pod (Labcyte, #LP-0200). The shallow-well plate was centrifuged at 2500 rpm for 30 s. • (2) The cell plate was removed from the incubator. • (3) According to the microplate layout diagram below, compounds were serially diluted 3-fold in Pod to obtain 10 concentrations. The diluted compounds were added to the cell plate at 100 nL, respectively, and then the cell plate was returned to the incubator for culture. • 3. At Day 0, 20 μL of CellTiter Glo was added to the plate with DMSO added, and the mixture was shaken in the dark for 10 minutes. The plate was read with Envision. • 4. At Day 5: CTG was added and the plate was read. • (1) After being cultured for 72 h, 20 μL of Cell Titer Glo was added to the cell plate, and the mixture was shaken in the dark for 10 minutes. • (2) The plate was read with Envision.
Assay Results • 1. Average value and standard deviation of 0% inhibition (DMSO well, MAX) and 100% inhibition (day 0, DMSO) in each group were calculated; • 2. […]

BTK^C481S = BTK^C481S (Homo sapiens (Human), UniProt Q06187, C481S); assay: BTK enzyme activity assay; format: biochemical; conditions: 200 μM ATP; 33P-ATP, filter-binding method
Procedure: The specific assay process of BTK enzyme activity assay is as follows: Buffer: 20 mM 2-[4-(2-hydroxyethyl)-1-piperazinyl]ethanesulfonic acid (Hepes) (pH 7.5), 10 mM magnesium chloride, 1 mM ethylenebis(oxyethylenenitrilo)tetraacetic acid (EGTA), 0.02% polyoxyethylene dodecyl ether (Brij35), 0.02 mg/mL BSA, 0.1 mM sodium vanadate (Na3VO4), 2 mM dithiothreitol (DTT), 1% DMSO, 200 μM adenosine triphosphate (ATP). • 1. The substrate was prepared in freshly prepared reaction buffer; • 2. The required cofactor was added to the above-mentioned substrate solution; • 3. The kinase BTK^C481S was added to the above-mentioned substrate solution and mixed well; • 4. The compound dissolved in DMSO was added to the kinase reaction mixture by Echo550 (Acoustic technology; nanoliter range), and the mixture was incubated at room temperature for 20 minutes; • 5. ^33P-ATP (specific radioactivity of 10 μCi/μL) was added to the reaction mixture to initiate the reaction; • 6. The mixture was incubated at room temperature for 2 hours; • 7. The radioactivity was detected by filter-binding method; • 8. Kinase activity data represented the percentage of remaining kinase activity in the assay sample compared to the vehicle (dimethyl sulfoxide) reaction.

Sequence of BTK^C481S (Q06187 whole entry C481S): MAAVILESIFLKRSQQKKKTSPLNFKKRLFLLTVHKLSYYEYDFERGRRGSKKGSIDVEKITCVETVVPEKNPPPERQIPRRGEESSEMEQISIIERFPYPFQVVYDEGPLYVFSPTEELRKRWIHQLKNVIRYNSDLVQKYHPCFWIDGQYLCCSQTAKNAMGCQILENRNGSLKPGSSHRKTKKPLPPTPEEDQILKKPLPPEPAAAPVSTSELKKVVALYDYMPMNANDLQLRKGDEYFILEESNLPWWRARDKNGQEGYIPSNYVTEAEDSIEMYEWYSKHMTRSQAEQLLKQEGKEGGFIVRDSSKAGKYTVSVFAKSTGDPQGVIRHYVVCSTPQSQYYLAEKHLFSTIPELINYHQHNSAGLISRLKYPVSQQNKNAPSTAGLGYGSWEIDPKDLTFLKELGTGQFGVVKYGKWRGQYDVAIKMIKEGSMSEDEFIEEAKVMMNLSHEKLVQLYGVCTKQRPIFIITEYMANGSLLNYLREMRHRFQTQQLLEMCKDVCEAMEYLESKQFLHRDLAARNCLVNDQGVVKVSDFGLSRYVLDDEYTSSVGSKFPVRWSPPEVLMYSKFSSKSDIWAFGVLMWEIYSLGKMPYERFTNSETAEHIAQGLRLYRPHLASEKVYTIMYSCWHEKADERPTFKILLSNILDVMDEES

For `O=C(c1ccc(Oc2ccccc2)cc1Cl)c1c[nH]c2ncnc(N[C@H]3CO[C@H](CO)CC3(F)F)c12` [Compound 2], which IC50 (TMD8 cells) is on record?
The IC50 was 269 nM.

And the IC50 (BTK^C481S)?
The IC50 was 12.5 nM.

With `CO[C@H]1C[C@@H](CO)OC[C@@H]1Nc1ncnc2[nH]cc(C(=O)c3ccc(Oc4ccccc4)cc3Cl)c12` [Compound 7] as the compound, how does the IC50 (BTK^C481S) read?
The IC50 was 43.6 nM.

How did the IC50 (BTK^C481S) turn out when `O=C(c1ccc(Oc2ccccc2)cc1Cl)c1c[nH]c2ncnc(N[C@H]3CO[C@H](CO)C4CC43)c12` (stereo partly shown) [Compound 1] was run?
The IC50 was 1.7 nM.

Which IC50 (BTK^C481S) does the source give for `N#C[C@@H]1CC[C@@H](Nc2ncnc3[nH]cc(C(=O)c4ccc(Oc5ccccc5)cc4Cl)c23)CO1` [Compound 5] here?
The IC50 was 10.7 nM.

How did the IC50 (BTK^C481S) turn out when `N#CC[C@@H]1CC[C@@H](Nc2ncnc3[nH]cc(C(=O)c4ccc(Oc5ccccc5)cc4Cl)c23)CO1` [Compound 6] was run?
Its IC50 is 6.5 nM.

What does the source list for `O=C(c1ccc(Oc2ccccc2)cc1Cl)c1c[nH]c2ncnc(N[C@H]3CO[C@H](CO)C[C@@H]3F)c12` [Compound 3]?
IC50 (TMD8 cells): 217 nM; IC50 (BTK^C481S): 6.7 nM

Which IC50 (BTK^C481S) does the source give for `CO[C@@H]1C[C@@H](CO)OC[C@@H]1Nc1ncnc2[nH]cc(C(=O)c3ccc(Oc4ccccc4)cc3C)c12` [Compound 9] here?
The IC50 was 15.2 nM.

For `[2H]C([2H])([2H])O[C@@H]1C[C@@H](CO)OC[C@@H]1Nc1ncnc2[nH]cc(C(=O)c3ccc(Oc4ccccc4)cc3Cl)c12` [Compound 13], which IC50 (BTK^C481S) is on record?
The IC50 was 15.1 nM.

`CO[C@@H]1C[C@@H](CO)OC[C@@H]1Nc1ncnc2[nH]cc(C(=O)c3ccc(Oc4ccccc4)cc3F)c12` [Compound 10] was tested. Which IC50 (BTK^C481S) did it give?
Its IC50 is 14.9 nM.

How did the IC50 (BTK^C481S) turn out when `O=C(c1ccc(Oc2ccccc2)cc1Cl)c1c[nH]c2ncnc(N[C@H]3CO[C@H](CO)C[C@H]3OCCO)c12` [Compound 8] was run?
The IC50 was 8.9 nM.

How did the IC50 (BTK^C481S) turn out when `CO[C@@H]1C[C@@H](CO)OC[C@@H]1Nc1ncnc2[nH]cc(C(=O)c3ccc(Oc4ccccc4F)cc3Cl)c12` [Compound 12] was run?
The IC50 was 39.8 nM.
